Measured values from ChEMBL document CHEMBL1155683, “Dolastatin 3 and two novel cyclic peptides from a palauan collection of Lyngbya majuscula” (J Nat Prod, 2000).
The source made the active and inactive calls. The rule behind the calls is not given here.

Experiments:
[1] = target: T1, Human immunodeficiency virus type 1 integrase (Human immunodeficiency virus 1, UniProt Q7ZJM1); experiment: Inhibition of HIV1 integrase long terminal repeat cleavage activity
[2] = target: T1, Human immunodeficiency virus type 1 integrase; experiment: Inhibition of HIV1 integrase strand transfer activity
[3] = target: Human immunodeficiency virus type 1 integrase (Human immunodeficiency virus 1) (UniProt Q7ZJM1); experiment: Inhibition of HIV1 integrase long terminal repeat cleavage activity at […]
[4] = target: Human immunodeficiency virus type 1 integrase (Human immunodeficiency virus 1) (UniProt Q7ZJM1); experiment: Inhibition of HIV1 integrase strand transfer activity at […]

T1 sequence (Q7ZJM1 whole entry): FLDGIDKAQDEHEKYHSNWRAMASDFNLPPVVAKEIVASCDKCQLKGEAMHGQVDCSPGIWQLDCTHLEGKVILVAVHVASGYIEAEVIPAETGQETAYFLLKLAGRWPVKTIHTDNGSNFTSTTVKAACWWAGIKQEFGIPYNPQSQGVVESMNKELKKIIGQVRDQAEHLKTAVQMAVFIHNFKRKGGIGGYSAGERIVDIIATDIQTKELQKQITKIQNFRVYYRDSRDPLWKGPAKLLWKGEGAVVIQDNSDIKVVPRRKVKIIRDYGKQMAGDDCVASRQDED
Human immunodeficiency virus type 1 integrase (Human immunodeficiency virus 1), sequence (Q7ZJM1 as listed by the source): as the sequence (Q7ZJM1 whole entry) above

| Compound | IC50 [1] | IC50 [2] | Activity [3] | Activity [4] |
| --- | --- | --- | --- | --- |
| CC(C)C[C@@H]1NC(=O)[C@@H]2CCCN2C(=O)[C@H](C(C)C)NC(=O)c2csc(n2)CNC(=O)c2csc(n2)[C@H](CCC(N)=O)NC1=O [DOLASTATIN 3] | 5 mM | 4.1 mM |  |  |
| CCC(C)[C@@H]1NC(=O)c2csc(n2)CNC(=O)c2csc(n2)[C@H](CCC(N)=O)NC(=O)[C@H](CC(C)C)NC(=O)[C@@H]2CCCN2C1=O (some centres undefined) |  |  | inactive | inactive |
